Bridges are numbered along the chain shown (N, C = ends). Where no end group is shown, it is not given here. [ ]: non-standard residue; d: D form.
Key:
[1] = system: HepG2 xenografts; assay: Planar gamma imaging of tumor xenografts; format: in vivo, BALB/c nu/nu mice
Experimental: 12 BALB/c nu/nu mice with HepG2 xenografts were divided into 4 groups of 3 mice each (experimental, blocking, control and micro-PET group). The tumors were about 1 cm diameter for planar gamma or micro-PET imaging.
In experimental group, 7.4 MBq ^99mTc-RRL (100 µl, diluted with phosphate buffer, pH 7.4), which were purified and separated by Sephadex G25 gel-filtration column, were then injected into each mouse via lateral tail vein. In blocking group, 500 µg unlabeled RRL was injected 30 minutes before injection of ^99mTc-RRL. In control group, each mouse was only administered with 7.4 MBq Na^99mTcO4. All injections were successful with no leakage.
A whole-body planar imaging was performed at 1, 2, 4 and 6 h after injection in the Department of Nuclear Medicine, Peking University First Hospital, using SPECT (SPR SPECT; GE Healthcare, Inc.) equipped with a low-energy, high-resolution, parallel-hole collimator. Planar images were acquired 200,000 counts with a zoom factor of 2.0, and were digitally stored in a 256×256 matrix size.

[2] = system: mice bearing HepG2 xenografts; parameters: species or system BALB/c nu/nu mice; settings: mouse, in vivo
Text: BALB/c nu/nu mice (female, 18 ± 2 g, 3- to 4-wk-old; Department of Laboratory Animal Science, Peking University First Hospital) were used in this study. The mice were inoculated with 1×10^7 HepG2 cells in the right upper limbs, and the tumors were allowed to grow to about a 1 cm diameter for largest diameter which could be measured. The mice were maintained using a standard diet, bedding and environment, with free access to food and drinking water.
40 BALB/c nu/nu mice with HepG2 xenografts were randomly divided into 8 groups (6 experimental groups, 1 blocking group and 1 control group) of 5 mice each. The experimental groups were treated with ^99mTc-RRL directly, and the blocking group was treated with excessive unlabeled RRL (500 µg, dissolved in 50 µL, 0.5 M, pH = 7.4 phosphate buffer) from lateral tail vein 30 minutes before injection of the radiolabeled derivative. The control group was administered with Na^99mTcO4 only.
The radiolabeled compounds were purified and isolated from the Sephadex G25 gel-filtration column, 1,850 kBq of ^99mTc-RRL was injected into each mouse via the lateral tail vein. All injections were successful with no leakage. The animals of 6 experimental groups were sacrificed by cervical dislocation at 15 min, 30 min, 1, 2, 4 and 6 h after injection, respectively. At 6 h, the blocking and control group were also studied.
The mice were dissected and tissues of interest (blood, heart, liver, spleen, lung, kidney, stomach, small intestine, bladder, bone, skeletal muscle and tumor) were weighed, and their radioactivity was measured using a γ-well counter, which was equipped with a NaI(Tl) crystal detector and coupled to a high gain PMT for maximum efficiency of 80%, along with a standard solution of the injection. Radioactivity results were recorded as the percentage injected activity per gram (%ID/g) of tissue corrected for background and decay.

[3] = In vitro stability at room temperature, neat and in normal saline (radiochemical purity by paper chromatography); format: physicochemical; settings: analysed at 0, 1, 2, 4 and 6 h by paper chromatography, average of 3 sampling points
Experimental: For the quality control of labeling, a double-phase paper chromatography on Xinhua no. 1 filter paper was performed to measure labeling efficiency and radiochemical purity, with acetone and ethanol: ammonia: water (2∶1∶5) as mobile phase.
(§1) A sample of 100 µL ^99mTc-RRL at room temperature was used to observe the in vitro stability. And the in vitro stability was also determined by incubating 100 µL ^99mTc-RRL with 900 µL of normal saline at room temperature and 900 µL of freshly collected serum at 37°C, respectively. The three aliquots were then analyzed at 0, 1, 2, 4 and 6 h by paper chromatography.

[4] = format: in vitro ADME
Experimental: as §1, with “For the quality control of labeling, a double-phase paper chromatography on Xinhua no. 1 filter paper was performed to measure labeling efficiency and radiochemical purity, with acetone and ethanol: ammonia: water (2∶1∶5) as mobile phase. A sample” for “A sample”

Substance: G[dA]GGK[dS][dS]CGGRRLGGC-NH2 (disulfide 8-16 (inferred)) [^99mTc-RRL, cyclic (disulfide) RRL peptide radiolabeled with 99mTc by a one-step method]
- Tumor visualisation in planar gamma imaging, blocking group ([1]; 500 µg unlabeled RRL injected 30 minutes before 7.4 MBq tracer, any time after injection): not shown clearly
- Tumor visualisation in planar gamma imaging ([1]; experimental group, 7.4 MBq i.v., at 2–6 h after administration): imaged clearly
- Blood clearance: tracer cleared from blood [2]: more than 71.3%
- Ratio of tumor-to-blood [2]: 1.95
- Ratio of tumor-to-liver [2]: 1.98
- Ratio of tumor-to-muscle [2]: exceeded 6.5
- Tracer cleared from tumor [2]: less than 4.39%
- Radiochemical purity over 6 hours at room temperature (RT) ([3]; 100 µL sample at room temperature): more than 93%
- Radiochemical purity over 6 hours in normal saline (NS) at RT ([3]; 100 µL with 900 µL normal saline at room temperature): more than 93%
- Radiochemical purity over 6 hours in fresh 37°C serum [4]: more than 93%

Reference: PMC3616001, “A Novel ^99mTc-Labeled Molecular Probe for Tumor Angiogenesis Imaging in Hepatoma Xenografts Model: A Pilot Study” (PLoS ONE, 2013)
